Measurements as given in patent publication US20230279018A1, “AP[…] INHIBITION” (priority 2020, published 2023).

What was measured:
PfcFRS = target: T1, PfcFRS (Plasmodium falciparum, UniProt Q8I246); test: Surface Plasmon Resonance binding, PfcFRS; details: SPR, 25° C., PBS pH 7.4, 5% DMSO; read-out: cFRS Kd, Pf
T1 sequence (Q8I246 1-575): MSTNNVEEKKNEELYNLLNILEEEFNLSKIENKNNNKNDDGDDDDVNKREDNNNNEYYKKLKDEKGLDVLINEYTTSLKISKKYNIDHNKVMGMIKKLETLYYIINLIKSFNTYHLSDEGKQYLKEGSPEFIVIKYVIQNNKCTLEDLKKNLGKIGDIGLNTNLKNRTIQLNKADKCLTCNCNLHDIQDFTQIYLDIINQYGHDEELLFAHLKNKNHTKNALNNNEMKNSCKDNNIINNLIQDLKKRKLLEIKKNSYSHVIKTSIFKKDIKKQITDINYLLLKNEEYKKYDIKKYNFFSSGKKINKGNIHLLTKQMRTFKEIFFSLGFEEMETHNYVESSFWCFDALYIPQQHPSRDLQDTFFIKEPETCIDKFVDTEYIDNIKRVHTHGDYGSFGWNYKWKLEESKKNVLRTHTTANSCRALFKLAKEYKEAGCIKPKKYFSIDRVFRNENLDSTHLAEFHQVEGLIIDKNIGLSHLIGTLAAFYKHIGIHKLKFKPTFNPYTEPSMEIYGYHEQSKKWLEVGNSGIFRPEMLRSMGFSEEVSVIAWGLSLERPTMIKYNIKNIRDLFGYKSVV
T1 sequence (Q8IIW2 1-623 partner): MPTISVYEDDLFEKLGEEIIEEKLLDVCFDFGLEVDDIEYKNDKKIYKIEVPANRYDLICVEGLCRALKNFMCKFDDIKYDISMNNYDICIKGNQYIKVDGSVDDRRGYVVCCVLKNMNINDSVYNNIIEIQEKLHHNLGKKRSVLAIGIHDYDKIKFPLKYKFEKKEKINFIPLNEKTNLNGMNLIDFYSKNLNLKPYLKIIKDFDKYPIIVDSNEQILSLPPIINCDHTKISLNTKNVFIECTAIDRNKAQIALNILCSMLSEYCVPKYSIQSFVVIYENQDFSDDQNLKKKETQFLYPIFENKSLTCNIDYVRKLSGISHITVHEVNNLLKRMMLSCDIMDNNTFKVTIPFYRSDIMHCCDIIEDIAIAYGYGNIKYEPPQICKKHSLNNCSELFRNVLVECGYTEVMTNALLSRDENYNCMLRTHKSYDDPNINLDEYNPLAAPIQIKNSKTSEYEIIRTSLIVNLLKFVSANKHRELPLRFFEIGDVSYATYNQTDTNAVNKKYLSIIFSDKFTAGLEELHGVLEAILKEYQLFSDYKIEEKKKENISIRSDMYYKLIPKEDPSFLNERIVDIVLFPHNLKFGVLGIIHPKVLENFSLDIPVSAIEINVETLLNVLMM
Description: Surface Plasmon Resonance experiments to evaluate the binding of Compound 1 to proteins were carried out on a Biacore T200 instrument (GE Healthcare) at 25° C. The binding experiments were performed in buffer 10 mM phosphate buffered saline (PBS), pH 7.4, containing 5% dimethyl sulfoxide (DMSO). The flow system was primed with the running buffer before the initiation of the experiment. Both PfcFRS and HscFRS were immobilized to Sensor Chip CM5 by standard amine coupling chemistry using N-hydroxysuccinimide (NHS) and ethyl(dimethylaminopropyl) carbodiimide (EDC), to an immobilization level of approximately 1500 RU. The binding experiments were carried out in a single cycle kinetics mode. Compound 1 was serially diluted in running buffer, and injected at a flow rate of 60 μl min^−1 across both surface for 60 s and dissociation were set up for 120 s. The analysis was done using Biaevaluation (GE Healthcare) and GraphPad Prism 7 software (GraphPad Software Inc, USA). […] The equilibrium dissociation constants (Kd) were determined by plotting the measured response (Req) as a function of the analyte concentration. […] Measured sensograms illustrating the binding of various concentrations of Compound 1 to the protein are shown in FIG. 3B (PfcFRS) and 3C (HscFRS) including both the measured data and the 1:1 binding model fit.

Pf Dd2 = Pf Dd2 growth inhibition assay; format: cell-based, Plasmodium falciparum
From the text: (§1) EC50 assays were run as described in Int'l Pub Nos. WO 2015070204, WO 2018175385, and Kato, N, et al. Nature 538 (2016): 344-349, which are hereby incorporated by reference in its entirety. The inhibition of the aminoacylation activity of Pf (Plasmodium falciparum), Pv (Plasmodium vivax), Hs (Human) and Pf-Mut (L550V) cFRS enzymes by Compound 1 are illustrated in FIG. 1.

Pf-Mut (L550V) cFRS = target: T2, Pf-Mut (L550V) cFRS (Plasmodium falciparum, UniProt Q8I246, L550V); test: malachite green-based aminoacylation assay, Pf-Mut (L550V) cFRS; format: biochemical; details: aminoacylation activity; read-out: cFRS IC50, Pf mutant (L550V)
T2 sequence (Q8I246 1-575 L550V): T1 sequence (Q8I246 1-575)
T2 sequence (Q8IIW2 1-623 partner): T1 sequence (Q8IIW2 1-623 partner)
From the text: as §1
The enzymatic activity of purified heterodimeric PfcFRS using malachite green-based aminoacylation assays with substrates L-Phe and ATP was also measured as described in Cestari, I. et al., J Biomol. Screen. 18 (2013): 490-497 and Kato, N, et al. Nature 538 (2016): 344-349, which are hereby incorporated by reference in its entirety. […] Enzymatic reactions (50 μl total volume) were performed in clear, flat-bottomed, 96-well plates (Costar 96-well standard microplates). The reaction mixture was incubated for 2 h at 37° C. The reaction was stopped by adding 12.5 μl of malachite green solution to the reaction mixture and levels of inorganic phosphate (Pi) were detected after incubation of 5 min at room temperature. Absorbance was the measured at 620 nm using a Spectramax M2 (Molecular Devices). Reactions without FRS enzyme were performed as background controls, values of which were subtracted from the reactions with enzyme. […]

COC[C@@H]1[C@H](c2ccc(C#Cc3ccccc3)cc2)[C@@H]2CN(C(=O)Nc3ccc(OC4CC4)cc3)C[C@@H](O)[C@@H](O)CN12 [Compound 1, (3S,4R,8R,9R,10S)—N-(4-cyclopropoxyphenyl)-3,4-dihydroxy-10-(methoxymethyl)-9-(4-(phenylethynyl)phenyl)-1,6-diazabicyclo[6.2.0]decane-6-carboxamide]
Kd (PfcFRS): 4 nM
EC50 (Pf Dd2; Plasmodium falciparum, DD2, read-out: PfDd2 growth inhibition EC50): < 1 nM
efficacy by EC50 Pf Dd2 growth inhibition relative to comparator (Pf Dd2; versus (3S,4R,8R,9S,10S)-10-((dimethylamino)methyl) analogue): three fold better efficacy
IC50 (Pf-Mut (L550V) cFRS): 1000 nM
